# In US20100173780A1, “POLYPHENOL-CONTENT-[…] FOR PLANT” (COSMO OIL CO., LTD., priority 2006, published 2010):
# Key:
# [1] = tested on: green pepper; assay: Amount of polyphenol in green pepper after ALA treatment (HPLC); format: in vivo, green pepper (Solanaceae, genus cayenne, race Miogi)
# Description: (§1) Two containers (length: 0.75 m, width 0.5 m) were provided and soil was placed in each of them. A Chemical fertilizer (nitrogen content:phosphorus content:potassium content=15:15:15 as mass ratio) was used as a base fertilizer and young plants of green pepper (Solanaceae, genus cayenne, race Miogi) were grown for two months according to a conventional method. Water was applied to the young plants once a day by means of a sprinkling can. Prior to one month from harvest, treatment was conducted once a week with 50 mL per container of each aqueous solution containing 0 ppm (control) or 1 ppm of 5-aminolevulinic acid hydrochloride to which a spreading agent, Approach BI (manufactured by Kao Corporation) had been added in a ratio of 0.1% by mass. After harvest, 3 g of green pepper was finely cut with scissors and a kitchen knife and then homogenized after addition of water. The homogenized one was diluted up to 6 mL with distilled water (stock solution) and the stock solution was divided into three even portions and used in the following extraction methods (1) to (3). (1) Three mL of ethyl acetate was added to 2 mL of the stock solution and the resultant one was centrifuged at 3000 rpm for 10 minutes. The supernatant was transferred to a spit tube and was evaporated to dryness with nitrogen gas while the tube was immersed in a warm bath at about 60° C. Thereto were added 200 μL of methanol and 100 μL of distilled water, thereby the volume being made 300 μL. (2) Two mL of methanol was added to 2 mL of the stock solution and the resultant one was centrifuged at 3000 rpm for 10 minutes. The supernatant was transferred to a spit tube and was evaporated to dryness with nitrogen gas while the tube was immersed in a warm bath at about 60° C. Thereto were added 200 μL of methanol and 100 μL of distilled water, thereby the volume being made 300 μL. (3) One mL of 0.1N hydrochloric acid was added to 2 mL of the stock solution and the resultant one was transferred to a plastic tube and kept in a drive-lock bath at 96.5° C. for 1 hour to effect hydrolysis. Five mL of ethyl acetate was added thereto and the resultant one was centrifuged at 3000 rpm for 10 minutes. The supernatant was transferred to a spit tube and was evaporated to dryness with nitrogen gas while the tube was immersed in a warm bath at about 60° C. Thereto were added 200 μL of methanol and 100 μL of distilled water, thereby the volume being made 300 μL. The samples from (1) to (3) were measured by high-performance liquid chromatography (HPLC) (analytical conditions: the measurement was performed at a flow rate of 1.0 mL/min at a column temperature of 40° C. using a wavelength of 350 nm, using Liquid A (80% by volume of methanol/5% by volume of acetic acid) or Liquid B (10% by volume of methanol/5% by volume of acetic acid) as an eluent, and using a column of Hichrom5C18, T898, 4.6 mm×[…] (manufactured by LLOYD′S REGISTER QUALITY COMPANY) and each concentration was calculated based on standard solutions. In Table 1, the most highly extracted value was cited among the results measured with each of the extraction methods (1) to (3). Moreover, the sum of individual concentration of polyphenol used in this time was regarded as the total amount of polyphenol.
# [2] = tested on: asparagus; assay: Amount of polyphenol in asparagus after ALA treatment (HPLC); format: in vivo, asparagus (Liliaceae, genus asparagus, race Welcome); conditions: 3 ppm
# Description: as §1
# Prior to 150 days from harvest, treatment to tetraennial-root asparagus (Liliaceae, genus asparagus, race Welcome) grown in a vertical stem form in a greenhouse was conducted once a fortnight with a spraying amount of 100 L/tan of each solution containing 0 ppm (control) or 3 ppm of 5-aminolevulinic acid hydrochloride. After harvest, the content of polyphenol was analyzed in the same manner as in Example 1.
# [3] = tested on: parsley; assay: Amount of polyphenol in parsley after ALA treatment (HPLC); format: in vivo, parsley (Umbelliferae, genus parsley, race Paramount); conditions: 1 ppm
# Description: as §1
# (§2) Two containers (length: 0.75 m, width 0.5 m) were provided and soil was placed in each of them. A Chemical fertilizer (nitrogen content:phosphorus content:potassium content=15:15:15 as mass ratio) was used as a base fertilizer and seeds of parsley (Umbelliferae, genus parsley, race Paramount) were planted according to a conventional method and water was applied once a day by means of a sprinkling can. Prior to one month from harvest, treatment was conducted once a week with 50 mL per container of each aqueous solution containing 0 ppm (control) or 1 ppm of 5-aminolevulinic acid hydrochloride. After harvest, the content of polyphenol was analyzed in the same manner as in Example 1.
# [4] = tested on: pepper; assay: Amount of polyphenol in pepper after ALA treatment (HPLC); format: in vivo, pepper (Solanaceae, genus cayenne; conditions: pepper (race Habanero), 1 ppm
# Description: as §1
# as §2, with “young plants” for “seeds”, “pepper (Solanaceae,” for “parsley (Umbelliferae,”, “cayenne,” for “parsley,”, “Habanero)” for “Paramount)”
# [5] = 1 ppm, 50 mL per container once a week from one month before harvest, HPLC, highest of extraction methods (1)-(3)
# [6] = greenhouse, 100 L/tan once a fortnight from 150 days before harvest, HPLC
# [7] = 50 mL per container once a week from one month before harvest, HPLC
# [8] = 50 mL per container once a week from one month before harvest, sum of the individual polyphenols
# [9] = 50 mL per container once a week, versus 0 ppm control
smiles,measurement,setting,value
"Cl.NCC(=O)CCC(=O)O [ALA, 5-aminolevulinic acid hydrochloride]",Total amount of polyphenol in green pepper,"[1]; 1 ppm once a week from one month before harvest, sum of the individual polyphenol concentrations",48824 ng/g
same,ALA/control ratio of total amount of polyphenol in green pepper,"[1]; 1 ppm once a week from one month before harvest, versus 0 ppm control",9.4
same,Apigenin amount in green pepper,[1]; [5],0 ng/g
same,Caffeic acid amount in green pepper,[1]; [5],276 ng/g
same,Chlorogenic acid amount in green pepper,[1]; [5],4856 ng/g
same,Ferulic acid amount in green pepper,[1]; [5],5680 ng/g
same,Hesperetin amount in green pepper,[1]; [5],236 ng/g
same,Isorhamnetin amount in green pepper,[1]; [5],1849 ng/g
same,Kaempferol amount in green pepper,[1]; [5],668 ng/g
same,Luteolin amount in green pepper,[1]; [5],644 ng/g
same,Quercetin amount in green pepper,[1]; [5],28919 ng/g
same,Rutin amount in green pepper,[1]; [5],5696 ng/g
same,ALA/control ratio of total amount of polyphenol in asparagus,"[2]; 100 L/tan once a fortnight, versus 0 ppm control",2.3
same,Apigenin amount in asparagus,[2]; [6],456 ng/g
same,Caffeic acid amount in asparagus,[2]; [6],0 ng/g
same,Chlorogenic acid amount in asparagus,[2]; [6],2983 ng/g
same,Ferulic acid amount in asparagus,[2]; [6],9899 ng/g
same,Hesperetin amount in asparagus,[2]; [6],20198 ng/g
same,Isorhamnetin amount in asparagus,[2]; [6],1022 ng/g
same,Kaempferol amount in asparagus,[2]; [6],723 ng/g
same,Luteolin amount in asparagus,[2]; [6],1923 ng/g
same,Quercetin amount in asparagus,[2]; [6],5533 ng/g
same,Rutin amount in asparagus,[2]; [6],40234 ng/g
same,Total amount of polyphenol in asparagus,"[2]; greenhouse, 100 L/tan once a fortnight from 150 days before harvest, sum of the individual polyphenols",82971 ng/g
same,Apigenin amount in parsley,[3]; [7],1099 ng/g
same,Caffeic acid amount in parsley,[3]; [7],4240 ng/g
same,Chlorogenic acid amount in parsley,[3]; [7],20820 ng/g
same,Ferulic acid amount in parsley,[3]; [7],0 ng/g
same,Hesperetin amount in parsley,[3]; [7],110685 ng/g
same,Isorhamnetin amount in parsley,[3]; [7],4388 ng/g
same,Kaempferol amount in parsley,[3]; [7],10321 ng/g
same,Luteolin amount in parsley,[3]; [7],2733 ng/g
same,Quercetin amount in parsley,[3]; [7],37699 ng/g
same,Rutin amount in parsley,[3]; [7],28977 ng/g
same,Total amount of polyphenol in parsley,[3]; [8],220962 ng/g
same,ALA/control ratio of total amount of polyphenol in parsley,[3]; [9],3.5
same,Apigenin amount in pepper,[4]; [7],2570 ng/g
same,Caffeic acid amount in pepper,[4]; [7],5520 ng/g
same,Chlorogenic acid amount in pepper,[4]; [7],18020 ng/g
same,Ferulic acid amount in pepper,[4]; [7],9270 ng/g
same,Hesperetin amount in pepper,[4]; [7],0 ng/g
same,Isorhamnetin amount in pepper,[4]; [7],270 ng/g
same,Kaempferol amount in pepper,[4]; [7],0 ng/g
same,Luteolin amount in pepper,[4]; [7],62060 ng/g
same,Quercetin amount in pepper,[4]; [7],26700 ng/g
same,Rutin amount in pepper,[4]; [7],457080 ng/g
same,Total amount of polyphenol in pepper,[4]; [8],581490 ng/g
same,ALA/control ratio of total amount of polyphenol in pepper,[4]; [9],1.4
